“Also recorded” adds a separate entry of the source.

Here are results for three compounds from US10716805B2, “Formulation for release of nitric oxide” (Glanotech Limited, priority 2018, dated 2020).

Series [1] relates to corpus cavernosum tissue. The series can be described thus: In-vitro relaxation/contraction of rat corpus cavernosum tissue (force displacement transducer). The series is classed as cell-based. To be noted: for relaxation of the tissue of the corpora cavernosa pre-constricted with norepinephrine (vasodilatory effect): scalar solutions 10^−s M to 10^−3 M after norepinephrine constriction of about 1.5 mN. From the text:
In particular, this model is used for planning experiments aimed at checking the vasodilatory action of NO on vascular smooth muscle cells, since the methodology presented by the authors allows samples of corpus cavernosum tissue to be obtained from rats, on which studies of response to various exogenous molecules can be conducted, to detect their relaxation/contraction effects on smooth muscle cells.
We used 20 adult Wistar-type rats weighing between 175 and 200 g; after having sacrificed the rats we obtained corpus cavernosum tissues as described by the methods and placed these in a Krebs solution (in mM: 118 NaCl, 4.7 KCl, 1.2 KH2PO4, 1.2 MgSO4, 1.5 CaCl2, 25 NaHCO3, 11 glucose).
A single sample was taken from each rat.
The excised tissues were then put in 10 mL Krebs solution and held in place by two metal arms to allow assessment of any changes in the forces observed and assessed by the Grass FT03 model (using a force displacement transducer apparatus to assess the muscle tension of tissues, calibrated in mN). The saline solution containing the tissues (Krebs solution) was kept at pH 7.4±0.1 and at 37° C., with oxygenation using a mixture of 95% oxygen and 5% carbon dioxide.

The test system of series [2] is rat model with type 1 diabetes induced by streptozotocin. Briefly: In-vivo test of sexual function in diabetic rat models. To be noted: for EL (Ejaculation latency) / IF (Introduction frequency) / IL (Introduction latency) / MF (Mating frequency) / ML (Mating latency) / PEI (Post-ejaculatory interval): diabetic rat. As to the method:
Next we tested the possible beneficial effects of SNO-pantetheine on sexual function in a rat model with type 1 diabetes induced by streptozotocin, which is typically accompanied by deficit of sexual activity.
In short, male Wistar rats were assigned to a cage (45×50×35 cm) covered in glass and lit with red light. Training took place every day after 5 pm for about 30 min, and after 10 minutes of acclimatization a female rat in an oestrogenic phase was introduced into the cage. We then observed the sexual behaviour of diabetic rats vs. the relevant controls by measuring standard parameters (Burnett et al., 1995).

Series [3] can be described thus: Formation and stability of nitrosothiol after mixing of phases A and B (visible UV absorption spectrum). The format is physicochemical. To be noted: at room temperature. Here is the method: The reaction mixture is prepared by dissolving the following amounts of reagents in 5 mL propylene glycol: fumaric acid 10 mM; ascorbic acid between 30 and 50 mM (PHASE A).
A solid phase, consisting of a mixture of pantetheine, sodium nitrite and powdered copper sulfate, is added rapidly to the solution obtained, in a quantity such that their concentration in the final reaction volume amounts to: pantetheine 10 mM, sodium nitrite 15 mM; copper sulfate 1 mM (PHASE B). Mixing is done at room temperature (25° C.) (Fukuto et al., 2013).
The S-nitroso compound observed, which was absent […] the phases were mixed, is attributable to the S-nitroso pantetheine derivative.
At the same time, owing to the catalytic action of the traces of copper present, the corresponding nitrosothiol is also formed, and remains sufficiently stable for more than 1 hour at room temperature. Therefore, this formulation allows the rapid formation of nitrogen monoxide in a rapidly diffusible form and, at the same time, the formation of nitrosothiol that is sufficiently stable for the sustained release of nitrogen monoxide over time.

The mark [4] stands for this setting: SNO-pantetheine group, Day 0 (baseline).
[5] abbreviates: topical SNO-pantetheine, Day 30.

Take `NC[C@H](O)c1ccc(O)c(O)c1` [norepinephrine, reference compound]: the “constriction of corpus cavernosum tissue” value in series [1] (scalar solutions 10^−8 M to 10^−3 M, Krebs solution pH 7.4, 37° C.) is given as “about 1.5 mN”.
As for S-nitrosothiol of alpha lipoic acid, in series [1], the “relaxation of the tissue of the corpora cavernosa pre-constricted with norepinephrine (vasodilatory effect)” value is “behaviour that is very similar to that of the S-nitrosothiol of pantetheine; also recorded: exhibit the desired vasodilatory effect”.
Consider “S-nitrosothiol of pantetheine [SNO-pantetheine]”, for which the “relaxation of the tissue of the corpora cavernosa pre-constricted with norepinephrine (vasodilatory effect)” value in series [1] is listed as “effect of the norepinephrine was cancelled out; also recorded: exhibit the desired vasodilatory effect”. In addition, in series [2] (setting [4]), the “EL (Ejaculation latency)” value worked out at 423.2 ± 12.5 s, the “IF (Introduction frequency)” value worked out at 11.2 ± 0.9 number, the “IL (Introduction latency)” value was determined as 52.3 ± 3.9 s and the “MF (Mating frequency)” value is 12.0 ± 1.7 number. Also, in series [2] (setting [4]), the “ML (Mating latency)” value was found to be 42.5 ± 2.9 s and the “PEI (Post-ejaculatory interval)” value stood at 343.3 ± 10.9 s. In addition, in series [2] (setting [5]), the “EL (Ejaculation latency)” value stood at 375.8 ± 10.8 s, the “IF (Introduction frequency)” value was found to be 14.5 ± 0.8 number, the “IL (Introduction latency)” value stood at 44.7 ± 4.2 s and the “MF (Mating frequency)” value is on record as 11.2 ± 0.3 number. In addition, in series [2] (setting [5]), the “ML (Mating latency)” value came out at 34.3 ± 2.5 s and the “PEI (Post-ejaculatory interval)” value was 386.2 ± 14.3 s. For the same compound, in series [2] (topical application, vs. all the parameters assessed), the “effect on sexual behaviour in the diabetic rat model” value is on record as “able to induce an increase in sexual behaviour”. Further, the “time nitrosothiol remains sufficiently stable” value in series [3] is recorded as “more than 1 hour”.
